Measurements: patent US5798387A, “Amino acid derivatives” (Zaidan Hojin Biseibutsu Kagaku Kenkyu Kai, priority 1992, dated 1998)
Where a SMILES comes first, the peptide text is derived from it. [ ]: non-standard residue; d: D form. αMeS = C[C](N)(CO)C(=O)O; hSer = N[CH](CCO)C(=O)O

Assays:
T cells = experiment: T cell proliferation (Test 1), thymidine uptake of Concanavalin A-treated T cells; assay type: cell-based, rat (female Fisher 344); settings: Rattus norvegicus, 72 h, 3 days, untreated cells = 100, read-out: Rate of stimulating proliferation of T cells; for activity at 0.1 µg/mL: concentration of compound 0.1 μg/ml; for activity at 1 µg/mL: concentration of compound 1 μg/ml; for activity at 10 µg/mL: concentration of compound 10 μg/ml
Text: Effects of the novel amino acid derivatives of the general formula (I) on the proliferation of T cells were investigated by the following procedure.
The spleens, which had been excised in sterility from female Fisher 344 rats (12-16 weeks old, purchased from CHARLES RIVER JAPAN, INC), were squeezed in RPMI 1640 medium (a product of NISSUI PHARMACEUTICAL CO., LTD.) supplemented with 10% of fetal bovine serum, followed by passage of the resulting cell suspension through a column containing nylon wool fibres, whereby a cell suspension containing an abundant amount of T cells was obtained. This cell suspension was diluted to a level of 1×10^6 cells/ml with addition of a medium of the same composition as above. The cell-containing medium so obtained was then added with 5 μg/ml of Concanavalin A (product of Pharmacia AB), followed by incubation at 37° C. for 4 hours. Four hours later, α-methylmannoside was added to the incubated medium to give a concentration of 20 mg/ml of α-methylmannoside. After stirring the medium, cells were separated and collected therefrom by centrifugation. The collected cells were suspended at a level of 3×10^6 cells/ml in a medium of the same composition as above, followed by placing the resulting cell suspension in 100 μl portions in a 96-well microplate.
Novel amino acid derivatives at various concentrations, which are shown in Table 4, were incorporated in an amount of 100 μl as the test compounds to the respective cell suspensions in the plate, followed by incubation at 37° C. for 3 days in an incubator under air atmosphere containing 5% of carbon dioxide. Meanwhile, eighteen hours before the completion of the incubation, a solution of 10μ Ci/ml of radioactively labeled thymidine (Thymidine "6-^3 H", a product of NEN Company) was added in an amount of 10 μl to the cell suspensions under incubation. The cells after the incubation were collected on a filter paper by means of a cell harvester, washed with water and radioactivity of the cells so treated was determined by a liquid scintillation counter. The determined values of the radioactivity of the cells as treated with the test compounds were evaluated on the assumption that the determined value of the radioactivity of the cells untreated, namely tested without addition of the test compound during the incubation of cells was amounting to 100. The so evaluated values are recorded and expressed as rates (%) for stimulating the T cell proliferation which show such extent that the proliferation of T cells is enhanced by the new amino acid derivative of this invention.

[1] = system: Ehrlich ascites carcinoma; experiment: Antitumor activity (Test 2), Ehrlich ascites carcinoma transplanted subcutaneously; assay type: in vivo, mouse (ICR); settings: tumor weight on day 15 vs control
Procedure: The antitumor activity of some amino acid derivatives of the general formula (I) according to this invention was tested in the following manner. A suspension of Ehrlich ascites carcinoma cells was subcutaneously injected to one of the inguinal parts of each ICR mouse to transplant 4×10^6 cells/mouse. From the seventh day after the transplantation, a test compound was intraperitoneally injected daily for 7 days at a dose of 50, 5 or 0.5 mg/kg (4 mice per treated group of mice, but 8 mice per untreated control group of mice). On the fifteenth day after the transplantation, a solid cancer was cut out and weighed. A reduction in the weight of solid cancers of the mice in each treated group of mice which was evaluated in comparison with the control group is expressed as rate of inhibiting the tumor growth (%) in Table 5 below.

[2] = system: bone-marrow cells (hematopoietic stem cells; megakaryocytes); experiment: Formation of colonies of megakaryocytes from bone-marrow cells (Test 3); assay type: cell-based, mouse (male BALB/c); settings: Mus musculus, Bone marrow cell, 168 h, 7 days, no addition = 100, read-out: Number of colonies of megakaryocytes; for activity at 5 µg/mL: concentration of test compound 5 μg/ml; for activity at 50 µg/mL: concentration of test compound 50 μg/ml
Procedure: The activity of some amino acid derivatives of the general formula (I) according to this invention which induces proliferation of hematopoietic stem cells was tested in the following manner. Thus, bone-marrow cells had been prepared from the femurs of male BALB/c mouse (6-7 weeks old), and then a suspension of the bone-marrow cells was overlayed on "Lympholite M" (product of Cefalane Company), followed by centrifugation under 1500 g for 20 minutes. A lymphocyte fraction was collected, washed three times with "alpha MEM medium" (product of Gibco Company), and then diluted and suspended in the same medium as above to give a lymphocyte concentration of 7×10^6 cells/ml.
[…] of the resulting cell suspension, 50 μl of a solution of a test compound in physiological saline, 50 μl of a culture supernatant of WEHI-3, 100 μl of phosphate-buffered physiological saline, 50 μl of a pre-deionized 10% bovine serum albumin solution, 50 μl of an L-asparagin solution (200 μg/ml), 50 μl of a calcium chloride solution (260 μg/ml) and 50 μl of bovine plasma containing sodium citrate were combined together. The liquid mixture so obtained was poured in portions of 50 μl/well on a slide glass ("Glass Ware", product of Flaw Laboratory Company). After coagulation of the mixture, the slide glass bearing the coagulated masses was immersed in 10% FBS-added alpha MEM medium, followed by incubation at 37° C. under 5% CO2 for 7 days.
After completion of the incubation, the cells on the slide glass were immobilized with a 25% glutaraldehyde solution. In accordance with the methods proposed by Nagasawa et al. ["Zoketsu Kan Saibo (Hematopoietic Stem Cells)" compiled by takahisa Shimamaro, page 128 (The Nishimura Shoten Co., Ltd.)], the immobilized cells were stained for acetylcholinesterase activity which is specific for mouse megakaryocytes, and also the cells were stained with Mayer hematoxylin. Each cell culture so stained was dried and then sealed with a sealing agent. Under a microscope of ×100 magnification, the number of megakaryocytic colonies (i.e., the number of cells stained in an orange color) per well was counted.

Compound | activity at 0.1 µg/mL (T cells) [%] | activity at 1 µg/mL (T cells) [%] | activity at 10 µg/mL (T cells) [%] | Tumor growth inhibiting rate ([1]; 5 mg/kg i.p. daily for 7 days) [%] | Tumor growth inhibiting rate ([1]; 50 mg/kg i.p. daily for 7 days) [%] | activity at 5 µg/mL [2] [%] | activity at 50 µg/mL [2] [%] | Tumor growth inhibiting rate ([1]; 0.5 mg/kg i.p. daily for 7 days) [%]
CC(C)CC(NC(=O)C(O)C(C)C(C)O)C(=O)OCc1ccccc1 (stereo not drawn) [Compound 10] | 231 | 201 | 251 | 31 | 58 | 138 | – | –
CC(C)C(O)C(=O)NC(C)(CO)C(=O)O (stereo not drawn) [Compound 7] | 240 | 222 | 323 | – | – | – | 166 | –
CC(NC(=O)C(O)C(C)C(C)O)C(=O)O (stereo not drawn) [Compound 24] | – | – | – | – | – | 136 | – | –
CC(O)CCC(=O)NC(C)(CO)C(=O)O (stereo not drawn) [Compound 3] | 123 | 100 | 101 | – | – | – | – | –
CC(O)C(C)C(O)C(=O)NC(C)(C)C(=O)O (stereo not drawn) [Compound 26] | – | – | – | – | – | 136 | – | –
CCC(C)CC(=O)NC(C)(CO)C(=O)O (stereo not drawn) [Compound 1] | 292 | 297 | 332 | – | – | 147 | – | –
CC(C)C(O)C(C)C(O)C(=O)NC(C)(CO)C(=O)OCc1ccccc1 (stereo not drawn) [Compound 17] | 201 | 273 | 245 | – | – | 107 | – | –
CSCC(NC(=O)C(O)C(C)C(C)O)C(=O)OCc1ccccc1 (stereo not drawn) [Compound 19] | 289 | 310 | 251 | 12 | – | – | 156 | –
CC(CO)(NC(=O)C(O)C(C)(C)CO)C(=O)O (stereo not drawn) [Compound 13] | 405 | 352 | 465 | – | – | 177 | – | –
CC(C)C(O)C(C)C(O)C(=O)NC(C)(CO)C(=O)O (stereo not drawn) [Compound 16] | 200 | 239 | 201 | – | – | – | 143 | –
CCC(C)CC(=O)NC(C)(CO)C(=O)OCc1ccccc1 (stereo not drawn) [Compound 2] | 208 | 190 | 275 | – | – | 122 | – | –
CC(O)C(C)C(O)C(=O)NC(CSCc1ccccc1)C(=O)OCc1ccccc1 (stereo not drawn) [Compound 20] | 153 | 227 | 261 | – | – | 129 | – | –
CC(CC(=O)OCc1ccccc1)NC(=O)C(O)C(C)C(C)O (stereo not drawn) [Compound 28] | – | – | – | – | – | 121 | – | –
CC(NC(=O)C(O)C(C)C(C)O)C(=O)OCc1ccccc1 (stereo not drawn) [Compound 22] | – | – | – | – | – | 108 | – | –
CCCCOC(=O)C(C)(CO)NC(=O)CCC(C)O (stereo not drawn) [Compound 4] | 133 | 135 | 100 | – | – | – | – | –
CC(O)CC(=O)NC(C)(CO)C(=O)O (stereo not drawn) [Compound 5] | 313 | 370 | 439 | – | – | – | 178 | –
CC(C)CC(NC(=O)C(O)C(C)C(C)O)C(=O)O (stereo not drawn) [Compound 9] | 175 | 157 | 196 | – | – | – | 145 | –
CC(CO)(NC(=O)C(N)CCO)C(=O)O (stereo not drawn) [Compound 27] (H-[hSer]-[αMeS]-OH; configuration not given here) | – | – | – | – | – | – | 143 | –
CC(O)C(C)C(O)C(=O)NC(C)(C)C(=O)OCc1ccccc1 (stereo not drawn) [Compound 25] | – | – | – | – | – | – | 156 | –
CC(O)C(NC(=O)C(O)C(C)C(C)O)C(=O)O (stereo not drawn) [Compound 23] | – | – | – | – | – | 144 | – | –
CC(O)C(C)C(O)C(=O)NC(CO)C(=O)O (stereo not drawn) [Compound 11] | 394 | 392 | 100 | – | – | 150 | – | –
COC(=O)C(C)(CO)NC(=O)C(O)C(C)(C)CO (stereo not drawn) [Compound 14] | 356 | 335 | 443 | – | – | 167 | – | –
CC(O)CC(=O)NC(C)(COCc1ccccc1)C(=O)OCc1ccccc1 (stereo not drawn) [Compound 6] | 142 | 171 | 169 | – | – | 126 | – | –
COC(=O)C(CSC)NC(=O)C(O)C(C)C(C)O (stereo not drawn) [Compound 18] | 268 | 355 | 427 | – | – | 146 | – | –
CC(C)C(O)C(=O)NC(C)(CO)C(=O)OCc1ccccc1 (stereo not drawn) [Compound 8] | 251 | 226 | 372 | – | – | 111 | – | –
CC(O)C(C)C(O)C(=O)NC(CO)C(=O)OCc1ccccc1 (stereo not drawn) [Compound 12] | 265 | 185 | 242 | – | – | 105 | – | 37
CC(CO)(NC(=O)C(O)C(C)(C)CO)C(=O)OCc1ccccc1 (stereo not drawn) [Compound 15] | 350 | 349 | 442 | – | – | – | 135 | –
CC(CC(=O)O)NC(=O)C(O)C(C)C(C)O (stereo not drawn) [Compound 29] | – | – | – | – | – | – | 121 | –
